Data as given in patent US20250011288A1 (BRISTOL-MYERS SQUIBB COMPANY, priority 2021, published 2025).

Target: T1, human RXFP1 (Homo sapiens, UniProt Q9HBX9)
T1 construct: expressed in transfected cells
T1 sequence (Q9HBX9 1-757): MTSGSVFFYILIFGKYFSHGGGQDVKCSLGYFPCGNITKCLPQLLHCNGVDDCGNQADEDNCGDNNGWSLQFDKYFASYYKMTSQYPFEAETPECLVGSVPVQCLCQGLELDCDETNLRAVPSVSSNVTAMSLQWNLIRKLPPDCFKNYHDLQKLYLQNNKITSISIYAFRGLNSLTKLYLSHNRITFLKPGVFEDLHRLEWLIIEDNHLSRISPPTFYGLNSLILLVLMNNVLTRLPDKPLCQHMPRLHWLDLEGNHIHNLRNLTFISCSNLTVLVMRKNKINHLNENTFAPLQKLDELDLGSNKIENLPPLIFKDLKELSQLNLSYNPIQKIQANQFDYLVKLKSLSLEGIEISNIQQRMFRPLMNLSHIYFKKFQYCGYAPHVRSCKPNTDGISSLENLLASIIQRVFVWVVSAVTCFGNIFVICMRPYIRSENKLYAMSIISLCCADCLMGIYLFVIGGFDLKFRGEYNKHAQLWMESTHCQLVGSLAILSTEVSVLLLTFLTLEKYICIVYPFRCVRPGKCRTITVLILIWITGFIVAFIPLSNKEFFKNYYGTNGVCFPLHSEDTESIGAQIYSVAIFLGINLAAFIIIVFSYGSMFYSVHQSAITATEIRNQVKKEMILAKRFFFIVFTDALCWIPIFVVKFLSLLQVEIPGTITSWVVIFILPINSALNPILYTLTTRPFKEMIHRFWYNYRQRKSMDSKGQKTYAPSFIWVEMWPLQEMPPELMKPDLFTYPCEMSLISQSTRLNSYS
Assay: human RXFP1 (hRXFP1) HEK293 cAMP assay (HTRF)
Type: cell-based
Details: HEK293 cells stably expressing human RXFP1, 30 min at room temperature
Procedure, shortened: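 Intracellular cAMP was quantified by HTRF after a 30 min room-temperature exposure of hRXFP1-HEK293 cells (1500/well) to compound at 0.010 nM–50 µM final, 2% DMSO. Buffer was HBSS with 20 mM HEPES, 0.05% BSA and 0.5 mM IBMX; values came from a 4-parameter logistic fit.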

| EC50 [nM] | SMILES |
| --- | --- |
| 3.2 | COc1ncc(C2=NOC3CC(CO)CC23)cc1C(=O)N[C@H]1[C@@H](C(=O)N[C@H](C)C2(C)CC(F)(F)C2)[C@H]2CC[C@@H]1/C2=C\C1CC1 (stereo partly drawn) [Example 140, N-((1R,2R,3S,4R,Z)-7-(cyclopropyl-methylene)-3-(((R)-1-(3,3-difluoro-1-methylcyclobutyl)ethyl)carbamoyl)bicyclo[2.2.1]heptan-2-yl)-5-(5-(hydroxymethyl)-3a,5,6,6a-tetrahydro-4H-cyclopenta[d]isoxazol-3-yl)-2-methoxynicotinamide] |
| 0.5 | COc1ncc(-c2cc([C@H](OC(=O)NC3CCC3)C(F)(F)F)ccc2F)cc1C(=O)N[C@H]1[C@@H](C(=O)NC(C)C2(C)CC2)[C@H]2CC[C@@H]1/C2=C\C1CC(F)(F)C1 (stereo partly drawn) [Example 148, (S)-1-(3-(5-(((1R,2R,3S,4R, Z)-7-((3,3-difluorocyclobutyl)methylene)-3-(((R)-1-(1-methylcyclopropyl)ethyl)carbamoyl)bicyclo[2.2.1]heptan-2-yl)carbamoyl)-6-methoxypyridin-3-yl)-4-fluorophenyl)-2,2,2-trifluoroethyl cyclobutylcar-bamate] |
| 6.1 | COc1ncc(C2=NOC3CC(C(C)O)CC23)cc1C(=O)N[C@H]1[C@@H](C(=O)N[C@H](C)C2(C)CC2)[C@H]2CC[C@@H]1/C2=C\C1CC1 (stereo partly drawn) [Example 159, N-[(1R,2R,3S,4R, 7Z)-7-(cyclopropyl-methylidene)-3-{[(1R)-1-(1-methylcyclopropyl)ethyl]carbamoyl}bicyclo[2.2.1]heptan-2-yl]-5-[5-(1-hydroxyethyl)-3aH,4H,5H,6H, 6aH-cyclopenta[d][1,2]oxazol-3-yl]-2-methoxypyridine-3-carboxamide] |
| 1.6 | COc1ncc(C2=NOC3CN(CCS(C)(=O)=O)CC23)cc1C(=O)N[C@H]1[C@@H](C(=O)Nc2ccc(F)c(C(F)(F)F)c2)[C@H]2CC[C@@H]1/C2=C\C1CC1 (stereo partly drawn) [Example 178, N-[(1R,2R,3S,4R, 7Z)-7-(cyclopropyl-methylidene)-3-{[4-fluoro-3-(trifluoromethyl)phenyl]carbamoyl}bicyclo[2.2.1]heptan-2-yl]-5-[5-(2-methanesulfonylethyl)-3aH,4H,5H,6H, 6aH-pyrrolo[3,4-d][1,2]oxazol-3-yl]-2-methoxypyridine-3-carboxamide] |
| 3.4 | COc1ncc(C2=NOC3CC(CO)CC23)cc1C(=O)N[C@@H]1C2CCC(/C2=C/C2CC2)[C@@H]1C(=O)N[C@H](C)C1(C(F)(F)F)CC1 (stereo partly drawn) [Example 141] |
| 4.9 | COc1ncc(C2=NOC3CC(C(C)O)CC23)cc1C(=O)N[C@H]1[C@@H](C(=O)Nc2ccc(F)c(C(F)(F)F)c2)[C@H]2CC[C@@H]1/C2=C\C1CCCC1 (stereo partly drawn) [Example 128, N-((1R,2R,3S,4R,Z)-7-(cyclopentylmethylene)-3-((4-fluoro-3-(trifluoromethyl)phenyl)carbamoyl)bicyclo[2.2.1]heptan-2-yl)-5-(5-(1-hydroxyethyl)-3a,5,6,6a-tetrahydro-4H-cyclopenta[d]isoxazol-3-yl)-2-methoxynicotinamide] |
| 2.5 | COc1ncc(-c2cnc3n2CC(O)CC3)cc1C(=O)N[C@H]1[C@@H](C(=O)Nc2ccc(F)c(C(F)(F)F)c2)[C@H]2CC[C@@H]1/C2=C\C1CC1 (stereo partly drawn) [Example 102, N-((1R,2R,3S,4R,Z)-7-(cyclopropyl-methylene)-3-((4-fluoro-3-(trifluoromethyl)phenyl)carbamoyl)bicyclo[2.2.1]heptan-2-yl)-5-(6-hydroxy-5,6,7,8-tetrahydroimidazo [1,2-a]pyridin-3-yl)-2-methoxynicotinamide] |
| 240 | COc1cc2c(cc1C(=O)N[C@@H]1C3CCC(/C3=C/C3CC3)[C@@H]1C(=O)Nc1ccc(F)c(C(F)(F)F)c1)CN(CCCO)CC2 (stereo partly drawn) [Example 86, N-[(1R,2R,3S,4R)-7-(cyclopropyl-methylidene)-3-{[4-fluoro-3-(trifluoromethyl)phenyl]carbamoyl}bicyclo[2.2.1]heptan-2-yl]-2-(3-hydroxypropyl)-6-methoxy-1,2,3,4-tetrahydroiso-quinoline-7-carboxamide] |
| 7.8 | CC(O)C1CC2ON=C(c3cc4c(c(C(=O)N[C@H]5[C@@H](C(=O)Nc6ccc(F)c(C(F)(F)F)c6)[C@H]6CC[C@@H]5/C6=C\C5CC5)c3)OC(C)(C)C4)C2C1 (stereo partly drawn) [Example 175, N-[(1R,2R,3S,4R, 7Z)-7-(cyclopropyl-methylidene)-3-{[4-fluoro-3-(trifluoromethyl)phenyl]carbamoyl}bicyclo[2.2.1]heptan-2-yl]-5-[5-(1-hydroxyethyl)-3aH,4H,5H,6H, 6aH-cyclopenta[d][1,2]oxazol-3-yl]-2,2-dimethyl-2,3-dihydro-1-benzofuran-7-carboxamide] |
| 2.2 | CC1(C)Cc2cc(C3=NOC4CC(O)(C(F)(F)F)CC34)cc(C(=O)N[C@@H]3C4CCC(/C4=C/C4CCCC4)[C@@H]3C(=O)Nc3ccc(F)c(C(F)(F)F)c3)c2O1 (single isomer, unassigned) [Example 142] |

The remaining lines, values behind:

| SMILES | EC50 [nM] |
| --- | --- |
| COc1ccc(-c2cc(C(=O)O)ccc2F)nc1C(=O)N[C@@H]1C2CCC(/C2=C/c2cnoc2)[C@@H]1C(=O)Nc1ccc(F)c(C(F)(F)F)c1 (stereo partly drawn) [Example 27, 4-Fluoro-3-(6-{[(2R,3S,7Z)-3-{[4-fluoro-3-(trifluoromethyl)phenyl]carbamoyl}-7-[(1,2-oxazol-4-yl)methylidene]bicyclo[2.2.1]heptan-2-yl]carbamoyl}-5-methoxypyridin-2-yl)benzoic acid] | 290 |
| Cn1c(=O)c(C(=O)N[C@@H]2C3CCC(/C3=C/C(F)(F)F)[C@@H]2C(=O)Nc2ccc(F)c(C(F)(F)F)c2)cc2ccccc21 (stereo partly drawn) [Example 15, N-[(2R,3S,7Z)-3-{[4-fluoro-3-(trifluoromethyl)phenyl]carbamoyl}-7-(2.2,2-trifluoroethylidene)bicyclo[2. 2.1]heptan-2-yl]-1-methyl-2-oxo-1,2-dihydroquinoline-3-carboxamide] | 3500 |
| COc1cn(CCS(C)(=O)=O)nc1C(=O)N[C@H]1[C@@H](C(=O)Nc2ccc(F)c(C(F)(F)F)c2)[C@H]2CC[C@@H]1/C2=C\C1CC1 [Example 77, N-[(1R,2R,3S,4R,7Z)-7-(cyclopropylmethylidene)-3-{[4-fluoro-3-(trifluoromethyl)phenyl]carbamoyl}bicyclo[2.2.1]heptan-2-yl]-1-(2-methanesulfonylethyl)-4-methoxy-1H-pyrazole-3-carboxamide] | 71 |
| CC(C)(O)COc1ccc2c(C(=O)N[C@@H]3C4CCC(/C4=C/C(F)(F)F)[C@@H]3C(=O)Nc3ccc(F)c(C(F)(F)F)c3)nn(C(F)F)c2c1 (stereo partly drawn) [Example 57, 1-(difluoromethyl)-N-[(2R,3S,7Z)-3-{[4-fluoro-3-(trifluoromethyl)phenyl]carbamoyl}-7-(2,2,2-trifluoro-ethylidene)bicyclo[2.2.1]heptan-2-yl]-6-(2-hydroxy-2-methylpropoxy)-1H-indazole-3-carboxamide] | 3900 |
| COc1nccnc1C(=O)N[C@@H]1C2CCC(C2=C(C)C)[C@@H]1C(=O)Nc1ccc(F)c(C(F)(F)F)c1 (stereo partly drawn) [Example 7, N-[(2R,3S)-3-{[4-fluoro-3-(trifluoromethyl)phenyl]carbamoyl}-7-(propan-2-ylidene)bicyclo [2.2.1]heptan-2-yl]-3-methoxypyrazine-2-carboxamide] | 1200 |
| COc1ncc(Br)nc1C(=O)N[C@@H]1C2CCC(C2=C(C)C)[C@@H]1C(=O)Nc1ccc(F)c(C(F)(F)F)c1 (stereo partly drawn) [Example 5, 6-bromo-N-[(2R,3S)-3-{[4-fluoro-3-(trifluoromethyl)phenyl]carbamoyl}-7-(propan-2-ylidenc)bicyclo [2.2.1]heptan-2-yl]-3-methoxypyrazine-2-carboxamide] | 1100 |
| COc1cnc(-c2cc([C@H](OC(=O)Nc3ccccc3)C(F)(F)F)ccc2F)cc1C(=O)N[C@@H]1C2CCC(/C2=C/C(F)(F)F)[C@@H]1C(=O)Nc1ccc(F)c(C(F)(F)F)c1 (stereo partly drawn) [Example 38, (1S)-2,2,2-trifluoro-1-14-fluoro-3-(4-{[(2R,3S,7Z)-3-{[4-fluoro-3-(trifluoromethyl)phenyl]carbamoyl}-7-(2.2,2-trifluoroethylidene)bicyclo[2.2.1]heptan-2-yl]carbamoyl}-5-methoxypyridin-2-yl)phenyl]ethyl N-phenylcarbamate] | 63 |
| O=C(O)c1cccc(C2=NOC(C(=O)N[C@@H]3C4CCC(/C4=C/C(F)(F)F)[C@@H]3C(=O)Nc3ccc(F)c(C(F)(F)F)c3)C2)c1 (stereo partly drawn) [Example 33, 3-(5-{[(2R,3S,7Z)-3-{[4-fluoro-3-(trifluoromethyl)phenyl]carbamoyl}-7-(2,2,2-trifluoroethylidene)bicyclo[2.2.1]heptan-2-yl]carbamoyl}-4,5-dihydro-1,2-oxazol-3-yl)benzoic acid] | 4400 |
